The NIST ThermoML archive (doi:10.1016/j.jct.2008.05.014)

Assay: xn = mol fraction of the nth substance listed
Conditions: Liquid; for speed of sound: Pulse-echo method

CCCCCCCCCCCC [dodecane] + CCCCCCC
Conditions	mass density [kg/m3]	speed of sound [m/s]
313.11 K, 75990 kPa, x2 = 0.1014	–	1575.8
313.11 K, 75990 kPa, x2 = 0.3007	–	1560.1
313.11 K, 75990 kPa, x2 = 0.5003	–	1544.4
313.11 K, 75990 kPa, x2 = 0.7007	–	1524.1
313.11 K, 91180 kPa, x2 = 0.1014	–	1630.7
313.11 K, 91180 kPa, x2 = 0.3007	–	1616.4
313.11 K, 91180 kPa, x2 = 0.5003	–	1601.4
313.11 K, 101320 kPa, x2 = 0.3007	–	1651.1
313.11 K, 101320 kPa, x2 = 0.5003	–	1637
313.11 K, 101320 kPa, x2 = 0.7007	–	1618.5
313.12 K, 101 kPa, x2 = 0.8	–	1108.9
313.12 K, 15200 kPa, x2 = 0.5003	–	1261.2
313.12 K, 30390 kPa, x2 = 0.8496	–	1297.9
313.12 K, 45590 kPa, x2 = 0.3007	–	1435.5
313.12 K, 45590 kPa, x2 = 0.8496	–	1375.3
313.12 K, 60790 kPa, x2 = 0.3007	–	1500.5
313.12 K, 60790 kPa, x2 = 0.8496	–	1444.9
313.12 K, 75990 kPa, x2 = 0.8496	–	1508.4
313.12 K, 91180 kPa, x2 = 0.8496	–	1566.8
313.12 K, 101320 kPa, x2 = 0.8496	–	1604
313.13 K, 101 kPa, x2 = 0.2001	–	1199.7
313.13 K, 101 kPa, x2 = 0.5002	–	1159.9
313.13 K, 15200 kPa, x2 = 0.8496	–	1209.3
313.14 K, 101 kPa, x2 = 0.1007	–	1210.7
313.15 K, 101 kPa, x2 = 0	734.369	–
313.15 K, 101 kPa, x2 = 0.0991	730.129	–
313.15 K, 101 kPa, x2 = 0.2008	725.372	–
313.15 K, 101 kPa, x2 = 0.2998	720.306	–
313.15 K, 101 kPa, x2 = 0.3996	714.763	–
313.15 K, 101 kPa, x2 = 0.5	708.645	–
313.15 K, 101 kPa, x2 = 0.6	701.955	–
313.15 K, 101 kPa, x2 = 0.7005	694.545	–
313.15 K, 101 kPa, x2 = 0.7995	686.378	–
313.15 K, 101 kPa, x2 = 0.8486	682.014	–
313.15 K, 101 kPa, x2 = 0.8988	677.238	–
313.15 K, 101 kPa, x2 = 0.9498	672.083	–
313.21 K, 15200 kPa, x2 = 0	–	1313.4
313.21 K, 30390 kPa, x2 = 0	–	1391.1
313.21 K, 45590 kPa, x2 = 0	–	1460.8
313.21 K, 60790 kPa, x2 = 0	–	1524.1
313.21 K, 75990 kPa, x2 = 0	–	1582.5
313.21 K, 91180 kPa, x2 = 0	–	1637.3
313.21 K, 101320 kPa, x2 = 0	–	1671.3
318.15 K, 101 kPa, x2 = 0	730.715	–
318.15 K, 101 kPa, x2 = 0.0991	726.449	–
318.15 K, 101 kPa, x2 = 0.2008	721.654	–
318.15 K, 101 kPa, x2 = 0.2998	716.534	–
318.15 K, 101 kPa, x2 = 0.3996	710.938	–
318.15 K, 101 kPa, x2 = 0.5	704.756	–
318.15 K, 101 kPa, x2 = 0.6	698	–
318.15 K, 101 kPa, x2 = 0.7005	690.511	–
318.15 K, 101 kPa, x2 = 0.7995	682.231	–
318.15 K, 101 kPa, x2 = 0.8486	677.842	–
318.15 K, 101 kPa, x2 = 0.8988	673.004	–
318.15 K, 101 kPa, x2 = 0.9498	667.78	–
318.17 K, 30390 kPa, x2 = 0.9391	–	1264.9
318.17 K, 60790 kPa, x2 = 0.9391	–	1416.7
318.17 K, 75990 kPa, x2 = 0.9391	–	1481.5
318.17 K, 91180 kPa, x2 = 0.9391	–	1540.9
318.17 K, 101320 kPa, x2 = 0.9391	–	1578.8
318.18 K, 15200 kPa, x2 = 0.9391	–	1172.9
318.18 K, 30390 kPa, x2 = 0.4999	–	1327.8
318.18 K, 45590 kPa, x2 = 0.4999	–	1402.2
318.18 K, 45590 kPa, x2 = 0.9391	–	1345
318.18 K, 60790 kPa, x2 = 0.4999	–	1469.5
318.18 K, 75990 kPa, x2 = 0.4999	–	1530.5
318.18 K, 75990 kPa, x2 = 0.97	–	1479.1
318.18 K, 91180 kPa, x2 = 0.4999	–	1587.8
318.18 K, 101320 kPa, x2 = 0.4999	–	1623.8
318.19 K, 15200 kPa, x2 = 0.4999	–	1243.6
318.19 K, 15200 kPa, x2 = 0.97	–	1168.4
318.19 K, 30390 kPa, x2 = 0.97	–	1261.1
318.19 K, 45590 kPa, x2 = 0.8496	–	1359.9
318.19 K, 45590 kPa, x2 = 0.97	–	1341.7
318.19 K, 60790 kPa, x2 = 0.97	–	1413.8
318.19 K, 91180 kPa, x2 = 0.97	–	1538.7
318.19 K, 101320 kPa, x2 = 0.1014	–	1652.2
318.19 K, 101320 kPa, x2 = 0.97	–	1576.7
318.2 K, 15200 kPa, x2 = 0.1014	–	1286.7
318.2 K, 15200 kPa, x2 = 0.8496	–	1191.3
318.2 K, 30390 kPa, x2 = 0.1014	–	1366.6
318.2 K, 30390 kPa, x2 = 0.8496	–	1281.3
318.2 K, 45590 kPa, x2 = 0.1014	–	1437.8
318.2 K, 60790 kPa, x2 = 0.1014	–	1502.5
318.2 K, 60790 kPa, x2 = 0.8496	–	1430.4
318.2 K, 75990 kPa, x2 = 0.8496	–	1494.5
318.2 K, 76190 kPa, x2 = 0.1014	–	1562.6
318.2 K, 91180 kPa, x2 = 0.1014	–	1617.7
318.2 K, 91180 kPa, x2 = 0.8496	–	1553.3
318.2 K, 101320 kPa, x2 = 0.8496	–	1590.8
318.28 K, 101320 kPa, x2 = 0.5003	–	1623.8
318.29 K, 15200 kPa, x2 = 0	–	1296.2
318.29 K, 15200 kPa, x2 = 0.3007	–	1265.2
318.29 K, 15200 kPa, x2 = 0.5003	–	1243.2
318.29 K, 30390 kPa, x2 = 0	–	1375
318.29 K, 30390 kPa, x2 = 0.5003	–	1327.5
318.29 K, 45590 kPa, x2 = 0	–	1445.5
318.29 K, 45590 kPa, x2 = 0.3007	–	1420.2
318.29 K, 45590 kPa, x2 = 0.5003	–	1401.9
318.29 K, 60790 kPa, x2 = 0	–	1509.7
318.29 K, 60790 kPa, x2 = 0.3007	–	1486
318.29 K, 60790 kPa, x2 = 0.5003	–	1469.1
318.29 K, 75990 kPa, x2 = 0.3007	–	1546.1
318.29 K, 75990 kPa, x2 = 0.5003	–	1530.4
318.29 K, 91180 kPa, x2 = 0	–	1624.1
318.29 K, 91180 kPa, x2 = 0.3007	–	1602.7
318.29 K, 91180 kPa, x2 = 0.5003	–	1587.6
318.29 K, 101320 kPa, x2 = 0	–	1658.5
318.29 K, 101320 kPa, x2 = 0.3007	–	1638.2
318.3 K, 30390 kPa, x2 = 0.3007	–	1347.3
318.3 K, 75990 kPa, x2 = 0	–	1568.8
318.3 K, 75990 kPa, x2 = 0.7007	–	1510
318.3 K, 101320 kPa, x2 = 0.7007	–	1605
318.31 K, 15200 kPa, x2 = 0.7007	–	1213.9
318.31 K, 30390 kPa, x2 = 0.7007	–	1301.3
318.31 K, 45590 kPa, x2 = 0.7007	–	1378
318.31 K, 60790 kPa, x2 = 0.7007	–	1447.1
318.31 K, 91180 kPa, x2 = 0.7007	–	1568.1
318.37 K, 101 kPa, x2 = 0.6	–	1123.2
318.38 K, 101 kPa, x2 = 0.7002	–	1105.9
318.38 K, 101 kPa, x2 = 0.8995	–	1066.3
318.39 K, 101 kPa, x2 = 0	–	1200.9
318.39 K, 101 kPa, x2 = 0.3002	–	1167
318.39 K, 101 kPa, x2 = 0.3996	–	1153.6
318.4 K, 101 kPa, x2 = 0.1007	–	1190.5
318.4 K, 101 kPa, x2 = 0.8	–	1087
318.41 K, 101 kPa, x2 = 0.2001	–	1179.3
318.41 K, 101 kPa, x2 = 0.5002	–	1138.9
